Measured values reported in US20100104550A1 (priority 2006, published 2010).

Tests used:
BiP = assay type: cell-based, African green monkey
CHOP = assay type: cell-based, murine
GRP78/BiP = GRP78/BiP (Homo sapiens, UniProt P11021); assay type: cell-based
bovine BiP = bovine BiP (Bos taurus, UniProt Q0VCX2); assay type: biochemical

GRP78/BiP, sequence (P11021 19-654): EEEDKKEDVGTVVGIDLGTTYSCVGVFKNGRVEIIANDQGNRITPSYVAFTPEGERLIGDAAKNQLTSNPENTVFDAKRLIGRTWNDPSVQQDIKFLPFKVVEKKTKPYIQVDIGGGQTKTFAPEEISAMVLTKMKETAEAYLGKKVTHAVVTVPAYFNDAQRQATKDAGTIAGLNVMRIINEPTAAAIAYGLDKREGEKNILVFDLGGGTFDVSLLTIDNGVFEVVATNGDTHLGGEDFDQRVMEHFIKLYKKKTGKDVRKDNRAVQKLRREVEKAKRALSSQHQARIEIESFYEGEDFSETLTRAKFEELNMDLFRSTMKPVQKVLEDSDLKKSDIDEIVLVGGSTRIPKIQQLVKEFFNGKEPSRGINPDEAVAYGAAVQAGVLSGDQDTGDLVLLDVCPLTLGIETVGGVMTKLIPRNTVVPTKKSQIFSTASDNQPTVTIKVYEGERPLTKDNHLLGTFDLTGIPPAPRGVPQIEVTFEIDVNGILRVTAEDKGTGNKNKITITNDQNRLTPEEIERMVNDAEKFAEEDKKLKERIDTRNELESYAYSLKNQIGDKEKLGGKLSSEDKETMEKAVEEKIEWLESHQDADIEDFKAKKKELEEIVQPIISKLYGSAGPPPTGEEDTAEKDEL

Compound: C[C@H]1CCC/C=C/[C@@H]2C[C@H](O)C[C@H]2[C@H](O)/C=C/C(=O)O1 [brefeldin A]
- effect on SubAB cleavage of 72-kDa BiP (BiP): completely blocked

Compound: C/C=C(/C)C(=O)O[C@H]1C(C)=C2[C@H]([C@@H]1OC(=O)CCCCCCC)[C@@](C)(OC(C)=O)C[C@H](OC(=O)CCC)[C@@]1(O)[C@H]2OC(=O)[C@@]1(C)O [thapsigargin, reference compound]
- CHOP induction in N2A cells (CHOP): evident
- expression of BiP (GRP78/BiP): enhanced expression of BiP

Compound: SubB: B subunit of subtilase cytotoxin, 13 kDa, binds target cells and transports SubA intracellularly
- cleavage of purified bovine BiP (bovine BiP): not cleaved

Compound: tunicamycin
- CHOP induction in N2A cells (CHOP): evident
